From patent publication US9173912B2 (priority 2008, dated 2015)
Converted amounts (≈) assume the structure as drawn.

How the values were obtained:
[1] = target: neuraminidase of Clostridium perfringens; settings: read-out: IC 50 neuraminidase, Zanamivir column
[2] = tested on: herpes simplex viruses type 1 (HSV-1); assay: Virucidal activity: viral suspension exposed to extract, then infectiousness in cells measured; assay type: cell-based; settings: Herpes Simplex Virus I
Method: (§1) In addition, a quite universal usability of the invented extract on viral diseases could be shown with herpes simplex viruses type 1 (HSV-1):
In order to define the virucidal activity, a viral suspension is exposed to the extract and then the infectiousness of viruses in the cells is measured. Ethanol is used for positive controls.

[3] = tested on: herpes simplex viruses type 1 (HSV-1); assay: Virustatic activity: supernatant of infected human cells after inoculation with extract; assay type: cell-based
Source text: as §1
The definition of virustatic activity is then identified via the supernatant of infected human cells after inoculation with extract. Aciclovir is the accepted positive control.

[4] = Inactivation of superoxide anions after stimulation with PMA (colour reduction); settings: test concentration 200 μg/ml, versus untreated control (0% inactivation)
Method: The concentration of oxygen radicals (superoxide anions) is regarded as measure for oxidative stress in organic tissues. By means of quantifying superoxide anions with a color reduction after stimulating with phorbol-12-myristat-13-acetate (PMA), the following antioxidative capacities have been recorded (test concentration 200 μg/ml) in comparison to an untreated control (0% inactivation): […]

Structure (SMILES): CC(=O)N[C@H]1[C@H]([C@H](O)[C@H](O)CO)OC(C(=O)O)=C[C@@H]1N=C(N)N [Zanamivir]
- IC50 [1]: > 200 µM

Structure (SMILES): CCO [Ethanol]
- IC50 ([2]; Human alphaherpesvirus 1, read-out: IC 50 Virucidal): 80 mg/mL (≈ 1740 mM)
- IC 50 Virustatic ([3]; Herpes Simplex Virus I): ineffective

Structure (SMILES): Nc1nc2c(ncn2COCCO)c(=O)[nH]1 [Aciclovir]
- IC 50 Virucidal [2]: ineffective
- IC50 ([3]; Human alphaherpesvirus 1, Herpes Simplex Virus I, read-out: IC 50 Virustatic): 0.0002 mg/mL (≈ 0.000888 mM)

Structure (SMILES): O=C1O[C@H]([C@@H](O)CO)C(O)=C1O [Vitamin C]
- Antioxidative capacity, inactivation of superoxide anions [4]: 96.6%
